Data as given in patent US20230390297A1, “USE OF NUCLEOTIDE SYNTHESIS INHIBITORS FOR TARGETED THERAPY IN MLL3/4 COMPASS MUTANT CANCER” (priority 2022, published 2023).

Assays:
[1] = test system: RKO, HCT116, DLD1 (MLL4 mutant) and HT55, Caco2, SW1417 (MLL4 WT) cells; experiment: RNA-seq in colorectal cancer cells treated with LTX; format: cell-based, human; conditions: 1 μM LTX, 24 hours
Procedure: FIG. 5. MLL4 mutant colorectal cancer cells are selectively sensitive to lometrexol treatment. (A) 100 μL of 0.5×10^5 cells/mL cells were seeded in 96-well plates one day before treatment. Cells were treated with 0-30 μM lometrexol (LTX) with 3× fold dilution for 72 hours. CellTiter-Glo® luminescent cell viability assay was performed to determine the percentage of inhibition under these conditions. The line plot compares sensitivity difference of all cell lines tested. (B) RKO, HCT116, DLD1, Caco2, HT55 and SW1417 cells were treated with DMSO or 1 μM LTX for 24 hours and whole cell lysates were used for western blot against cell cycle (H3 Ser10-p, CDT1, CyclinB 1, Geminin, CyclinEl, CyclinA2, p-cdc2) and apoptosis (PARP, Caspase3) markers using Hsp90 and I3-tubulin as loading control. […] (F) A subset of representative terms from the full cluster were selected and converted into a network layout. Each term is represented by a circle node, where its size is proportional to the number of input genes fall under that term, and its color represent its cluster identity. Terms with a similarity score>0.3 are linked by an edge (the thickness of the edge represents the similarity score). The network is visualized with Cytoscape with “force-directed” layout and with edge bundled for clarity. One term from each cluster is selected to have its term description shown as label.
FIG. 18. RNA-seq data in colorectal cancer cells treated with LTX. (A) Cellular morphological change in different cells treated with LTX at 1 μM for 24 hours under bring field microscope.
FIG. 19. The unique gene expression signature of MLL4 mutant cells in response to LTX treatment. (A-B) RNA-seq track examples showing the AURKA (A) and PLK1 (B) gene expression in different cell lines in response to LTX treatment. […] The 10 common genes found in the plots were defined as “lometrexol responsive mitotic gene signature” including PLK1, AURKA, CDCA3, CDC20, SFPQ, POLA1, PSRC1, KIF20A, FAM83D, and DLGAP5. (D) Volcano plots showing the 10 genes in MLL4 WT cell lines including HT55, Caco2, and SW1417.
Gene count tables were constructed using HTseq (56) with Ensembl gene annotations and used as input for edgeR 3.0.8 (57). Genes with Benjamini-Hochburg adjusted p-values less than were differentially expressed. Batch effects were removed using ComB at-seq on the raw read counts (58). Pathway analysis was performed with Metascape (59).

[2] = test system: HCT116 sc xenografts (MLL4 mutant); experiment: HCT116 subcutaneous xenograft in nude mice; format: in vivo
Procedure: FIG. 6. Inhibition of de novo purine synthesis by lometrexol inhibits MLL4 mutant tumor growth. Tumor development after inoculation of 4×10^6 of HCT116 cells into the nude mice. Mice with HCT116 subcutaneous (sc) tumor were either treated with vehicle (DMSO, n=9) or LTX (25 mg/kg, n=9) daily for 7 days. (A) Growth plots for sc tumors in each treatment group were shown. Tumor volumes (mm3) show mean and upper SD. (B) Dot plot representation of sc tumor volume in mice at day 12 post-tumor cell injection. Unpaired t-test values for comparisons between DMSO and LTX treatment: ****, P<0.0001. (C) Photographs of nude mice (left) and sc tumor taken from these mice (right) in which HCT116 cells were inoculated into the right flank. (D) Animal survival at the indicated days after inoculation. Log-rank test was used for comparisons between DMSO and LTX treatment: ****, P<0.0001. (E) H&E staining and immunohistochemistry showing the proliferation and apoptosis in tumors with Ki-67 and TUNEL staining. The signals for Ki-67 and TUNEL are quantified and shown in the bar plots on the right.
FIG. 20. Lometrexol application in MLL4 mutant tumors in the xenograft mouse models. (A-D) Tumor development after inoculation of 4×10^6 of HT55 cells into the nude mice. Mice with HT55 subcutaneous (sc) tumor were either treated with vehicle (DMSO, n=9) or LTX (15 mg/kg, n=9) daily for 7 days. (A) Growth plots for sc tumors in each treatment group were shown. Tumor volumes (mm3) show mean and upper SD. (B) Dot plot representation of sc tumor volume in mice at day 18 post-tumor cell injection. […] (C) Photographs of nude mice (upper) and sc tumor taken from these mice (lower) in which HT55 cells were inoculated into the right flank. (D) Animal survival at the indicated days after inoculation. Log-rank test was used for comparisons between DMSO and LTX treatment. (E-H) Tumor development after inoculation of 4×10^6 of HCT116 cells into the nude mice. Mice with HCT116 subcutaneous (sc) tumor were either treated with vehicle (DMSO, n=9) or LTX (15 mg/kg, n=9) daily for 7 days. (E) Growth plots for sc tumors in each treatment group were shown. Tumor volumes (mm3) show mean and upper SD. (F) Dot plot representation of sc tumor volume in mice at day 12 post-tumor cell injection. Unpaired t-test values for comparisons between DMSO and LTX treatment: ***, P<0.001. (G) Photographs of nude mice (upper) and sc tumor taken from these mice (lower) in which HCT116 cells were inoculated into the right flank. (H) Animal survival at the indicated days after inoculation. Log-rank test was used for comparisons between DMSO and LTX treatment: ***, P<0.001.
Six-week-old female athymic mice (nu/nu genotype, BALB/c background) were purchased from Envigo (Indianapolis, IN, USA) and housed under aseptic conditions. HT55 or HCT116 cells were implanted into the flank of athymic mice as previously described (65). Briefly, 4×10^6 cells, in 0.4 ml of cell culture media with matrigel (BD Bioscience) at 1:1 ratio, were injected in the right flank of mice under anesthetization by isoflurane. […] The tumor sizes were measured on alternate days and the mice were euthanized when the tumor size reached 1000 mm^3. […]
For in vivo study, the Kaplan-Meier estimator and Prism software were used to generate and analyze survival plots. Differences between survival plots were calculated using a log-rank test. […]

[3] = LTX 25 mg/kg daily for 7 days vs DMSO

For `Nc1nc2c(c(=O)[nH]1)C[C@@H](CCc1ccc(C(=O)N[C@@H](CCC(=O)O)C(=O)O)cc1)CN2` [lometrexol, (2S)-2-[[4-[2-[(6R)-2-amino-4-oxo-5,6,7,8-tetrahydro-3H-pyrido[2,3-d]pyrimidin-6-yl]ethyl]benzoyl]amino]pentanedioic acid], the “differential gene expression change” value ([1]; MLL4 mutant vs WT cells) was “only induced significant differential gene expression change in MLL4 mutant cells”, the “PLK1 and AURKA gene expression” value ([1]; remained the same in MLL4 WT cells) was “remarkably diminished in all MLL4 mutant cells” and the “genes commonly downregulated in all MLL4 mutant cells (RKO, HCT116, DLD1)” value ([1]; unaffected in MLL4 WT cells) was 885 genes. The “genes commonly upregulated in MLL4 mutant cells (RKO, HCT116, DLD1)” value ([1]; unaffected in MLL4 WT cells) was 707 genes, the “tumor growth at lower dose” value ([2]; LTX 15 mg/kg daily for 7 days vs DMSO, tumor volume day 12 P<0.001, survival P<0.001) was “maintained the sensitivity to LTX at a lower dose” and the “apoptosis in tumors (TUNEL)” value [2, 3] was “enhanced apoptosis”. For the same compound, the “cell proliferation in tumors (Ki-67)” value [2, 3] was “significantly decreased”, the “subcutaneous tumor growth (tumor volume)” value ([2]; LTX 25 mg/kg intraperitoneally daily for 7 days vs DMSO, P<0.0001) was “significantly inhibited the subcutaneous (sc) tumor growth” and the “survival of recipient mice” value ([2]; LTX 25 mg/kg intraperitoneally daily for 7 days vs DMSO, log-rank P<0.0001) was “extend the survival of recipient mice”.
